In PMC10603992, “Antimicrobial and Adjuvant Potencies of Di-n-alkyl Substituted Diazalariat Ethers” (Antibiotics, 2023):
≈ marks a conversion by molar mass, not a printed value. Read-outs that look alike come from different tables or passages of the source.

Experiments:
DH5α E. coli [1] = experiment: MIC against DH5α E. coli; format: cell-based; conditions: Escherichia coli, no additional antimicrobial; MICs in table limited to […]; read-out: Minimum inhibitory concentration against DH5α E. coli
[2] = Turbidimetric solubility limit in MHII or PBS; format: physicochemical; conditions: DMSO ≤0.5%
K12 E. coli = experiment: MIC against K12 E. coli; format: cell-based; conditions: Escherichia coli
Tet^R E. coli = experiment: MIC against Tet^R E. coli; format: cell-based
S. aureus 1199B [3] = experiment: MIC against S. aureus 1199B; format: cell-based, Staphylococcus aureus; conditions: MHII media, 90% growth inhibition
S. aureus [4] = experiment: MIC against S. aureus under various pH and media conditions; format: cell-based, Staphylococcus aureus
[5] = Dynamic light scattering of C12LE aggregation; format: physicochemical; conditions: water, in the presence of the antimicrobial or C12LE alone
Procedure: It is known that dialkyldiazacrowns form stable aggregates in aqueous solution [57, 62]. It was hypothesized that complexation between antimicrobials and macrocycles would alter or prevent the ability of the complex to form aggregates. […] Indeed, the particle sizes observed when chlortetracycline is present was almost indistinguishable from particle formation by C12LE (4) alone.
Measurements were performed on a Brookhaven Instruments Corp. ZetaPALS instrument at 25 °C using a 660 nm laser and correlating scattering at 90°. Samples were prepared by initially dissolving the amphiphile in filtered DMSO obtained from ThermoFisher. Next, they were diluted into 1× PBS such that DMSO was fixed at 0.5% in 15 mL sterile conical tubes. 10× PBS was obtained commercially, then diluted 10-fold in MQ H2O. The mixture was vortexed and incubated at room temperature for 2 h, then transferred to a clean quartz cuvette and equilibrated in the instrument for 10 min at 25 °C. Ten measurements consisting of 2 min runs were made on each sample. The average effective diameter was calculated with standard error reported for at least three trials.

[6] = biological target: T1, NorA efflux pumps in S. aureus 1199B (Staphylococcus aureus, UniProt P0A0J7); experiment: Efflux pump inhibition (EthBr accumulation); format: cell-based; set-up: Efflux pump inhibition (increase in EthBr fluorescence): dose or concentration left out as unconfirmed; conditions: […] µM compound
T1 construct: Increase in EthBr fluorescence observed by its accumulation in S. aureus 1199B cytosol; endogenous in cells; host or cells: Staphylococcus aureus 1199B (whole bacteria)
T1 sequence (P0A0J7 whole entry): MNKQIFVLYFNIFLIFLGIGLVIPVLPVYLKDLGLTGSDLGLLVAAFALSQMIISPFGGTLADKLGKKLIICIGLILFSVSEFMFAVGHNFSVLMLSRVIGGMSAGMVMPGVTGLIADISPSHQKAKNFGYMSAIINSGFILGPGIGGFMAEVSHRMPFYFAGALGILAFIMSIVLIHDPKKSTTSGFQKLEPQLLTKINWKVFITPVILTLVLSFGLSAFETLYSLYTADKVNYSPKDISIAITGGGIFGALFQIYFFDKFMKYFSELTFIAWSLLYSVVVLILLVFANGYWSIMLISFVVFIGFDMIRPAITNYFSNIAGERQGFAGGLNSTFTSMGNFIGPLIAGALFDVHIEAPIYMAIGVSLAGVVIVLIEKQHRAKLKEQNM
From the text: An important reason for the choice of S. aureus 1199B for study is that its resistance to norfloxacin is known to result from the presence of the Nor A efflux pump. Efflux pumps require regulated ion balance to function so that exogeneous substances such as antibacterials can effectively be ejected. Ethidium bromide (EthBr) can penetrate bacteria and is detectable by its fluorescence. To the extent that ion homeostasis is disrupted, ion balance is deregulated, and efflux pump function is compromised or inhibited.
Experimental details have been reported in [44].

S. aureus [7] = experiment: Membrane depolarization by DiBAC4(3) fluorescence; format: cell-based, Staphylococcus aureus; conditions: compound at ½ MIC
Procedure: Disruption of ion homeostasis by 1–6 should be apparent in the associated membrane depolarization. […] The dye is readily absorbed by bacteria owing to the negative internal potential. Disruption of ion homeostasis will affect both proton and potassium cation regulation. The internalized, self-quenched dye will be released and increased fluorescence will be observed.
Two types of experiments were performed to assess membrane depolarization. […] If ion homeostasis is affected by the presence of any of these compounds, the fluorescent response should increase as the lariat ether concentration increased.
A second series of experiments was performed to determine the relationship of disrupted ion homeostasis, as reflected in membrane depolarization with cellular vitality (Figure 17). […] Alamar blue (see above) was used to determine cell viability. No depolarization was apparent in the S. aureus control in the absence of a lariat ether or lariat ether derivative. Depolarization was greatest for C10LE•MeI (3). […] We note that the MIC values for S. aureus observed for 2, 3, 5, and 6 were similar.
The membrane depolarization study was conducted as described in [48].

S. aureus 1199B [8] = experiment: Growth curves; format: cell-based, Staphylococcus aureus; conditions: ½ MIC, OD600 over 24 h
Procedure: In the studies above, 1–6 were administered at ½ MIC concentrations. At these concentrations, no toxic effect of the compound on cells was anticipated. In order to confirm the effect of compound concentration on S. aureus viability, growth curves were conducted for each compound. In all cases, S. aureus alone was used as control. For the three C10LE compounds (1–3), 32 µM and 64 µM concentrations of norfloxacin were added to the norfloxacin-resistant S. aureus strain as an additional control. The concentration ranges for each of compounds 1–6 varied with their potencies.
The determination of growth curves was performed against S. aureus 1199B, which is norfloxacin resistant at 32 µM. Norfloxacin was used at 64 µM as a control. The compounds tested were 1–6, C10LE and C12LE and their hydrochlorides and methiodides. S. aureus 1199B was cultured overnight from a single CFU and reduced to OD600 = 0.55 before use. Samples were prepared in LB media to which was added either the norfloxacin control or the combination of norfloxacin and one of the compounds C10LE (1), C10LE•2HCl (2), C10LE•2MeI (3), C12LE (4), C12LE•2HCl (5), or C12LE•2MeI (6). Dimethylsulfoxide (DMSO) was used to solubilize the lariat ether derivative, when necessary, but its concentration was never allowed to exceed 0.5% (v/v) in all experiments. […] The absorbance of each sample (600 nm) was recorded every quarter hour for 24 h.

DH5α E. coli [9] = system: DH5α E. coli; set-up: method as in PMID 15858645; conditions: free bases, previously reported data; cited from earlier work
Escherichia coli = conditions: administered with ½ MIC of C8LE; earlier work, no reference given; cited from earlier work
[10] = Planar bilayer voltage clamp; conditions: 70 mV, KCl 450 mM, HEPES 10 mM, pH 7
From the text: This compound was therefore converted into its bis(methiodide) to form C11LE•2MeI (8). It is clear from the trace shown that only spiking behavior was observed and a large opening eventually emerged. […] The formation of a large opening in the membrane comports with the expectation of increased permeability. Such an opening is also in accord with the observation (see above) of depolarization of bacterial membranes.
Figure 18 Planar bilayer voltage clamp trace for C11LE•2MeI (8) at 70 mV. Axes: Y = millivolts and X axis = 10 s per section. Conditions: soybean asolectin membrane, KCl (450 mm) buffer solution (HEPES, 10 mm, pH 7).
The planar bilayer experiments were conducted as described previously.

SMILES	MIC (DH5α E. coli [1]) [µM]	solubility at 2 h ([2]; Mueller Hinton II, pH 7.3, 2 h at 37 °C, read-out: Solubility limit in MHII) [µM]	solubility at 2 h ([2]; phosphate-buffered saline, 2 h at 37 °C, read-out: Solubility limit in PBS) [µM]	MIC (K12 E. coli; MHII media, 90% growth inhibition, read-out: MIC K12 E. coli) [µM]	MIC (Tet^R E. coli; Escherichia coli, read-out: MIC Tet^R E. coli) [µM]	MIC Tet^R E. coli (Tet^R E. coli; MHII media, 90% growth inhibition)	MIC S. aureus 1199B (S. aureus 1199B [3]) [µM]	MIC (S. aureus [4]; MHII, pH 6.4, read-out: MIC S. aureus, MHII pH 6.4) [µM]	MIC (S. aureus [4]; MHII, pH 7.4, read-out: MIC S. aureus, MHII pH 7.4) [µM]	Change in MIC as the pH was increased from 6.4 to 8.4 (S. aureus [4]; S. aureus, Mueller Hinton medium)	MIC (S. aureus [4]; Staphylococcus aureus, pH 8.4, MHII, pH 8.4, read-out: MIC S. aureus, MHII pH 8.4) [µM]	Slope of C12LE aggregation (DLS particle size) [5]	Efflux pump inhibition (increase in EthBr fluorescence) [6]	Membrane depolarization (DiBAC4(3) fluorescence) (S. aureus [7])	Effect on bacterial growth (growth curves) (S. aureus 1199B [8])	melting point [°C]	MIC (K12 E. coli; read-out: MIC K12 E. coli, MHII media, 90% growth inhibition) [µM]	Minimum inhibitory concentration against DH5α E. coli (DH5α E. coli [9]) [µM]	Fold increase in potency of rifampicin against E. coli (Escherichia coli) [fold]	Channel formation in planar bilayer [10]
CCCCCCCCCCCCN1CCOCCOCCN(CCCCCCCCCCCC)CCOCCOCC1 [C12LE (4), N,N′-Di-n-dodecyl-4-13-diaza-18-crown-6]	> 128	16 (≈ 9.58 µg/mL)	16 (≈ 9.58 µg/mL)	> 128	> 64	inactive	32 (≈ 19.2 µg/mL)	>16	>32	changes in MIC were observed	> 64	2.95	most potent efflux pump inhibition	failed to show any significant evidence of membrane depolarization	growth effects were observed at ½ MIC and lower	141 to 144				
CCCCCCCCN1CCOCCOCCN(CCCCCCCC)CCOCCOCC1 [C8LE (7)]	206 (≈ 100 µg/mL)																100 (≈ 48.7 µg/mL)	>128	20	
CCCCCCCCCCC[N+]1(C)CCOCCOCC[N+](C)(CCCCCCCCCCC)CCOCCOCC1 (stereo not drawn) [C11LE•2MeI (8)]																				does not form stable channels
